According to ChEMBL document CHEMBL5260848, “Recent advancements in the development of bioactive pyrazoline derivatives” (Eur J Med Chem, 2020):
Values after ≈ are worked out from the molar mass of the structure shown. One block for each molecule: values may come before it.

Experiments:
[1] = Antioxidant activity assessed as DPPH radical scavenging activity; format: functional
[2] = molecular target: Carbonic anhydrase 1 (Homo sapiens, UniProt P00915)
[3] = molecular target: T1, Carbonic anhydrase 9 (Homo sapiens, UniProt Q16790); test: Inhibition of human CA9
[4] = molecular target: Carbonic anhydrase 2 (Homo sapiens, UniProt P00918)
[5] = test system: Mus musculus; test: Antidiabetic activity against albino mouse assessed as reduction in blood glucose level at 0.2 mmol/Kg relative to control; format: functional; set-up: scale not given: the % may be the effect or the level left
[6] = molecular target: Acetylcholinesterase (Homo sapiens, UniProt P22303)
Sequence of Acetylcholinesterase (P22303 whole entry): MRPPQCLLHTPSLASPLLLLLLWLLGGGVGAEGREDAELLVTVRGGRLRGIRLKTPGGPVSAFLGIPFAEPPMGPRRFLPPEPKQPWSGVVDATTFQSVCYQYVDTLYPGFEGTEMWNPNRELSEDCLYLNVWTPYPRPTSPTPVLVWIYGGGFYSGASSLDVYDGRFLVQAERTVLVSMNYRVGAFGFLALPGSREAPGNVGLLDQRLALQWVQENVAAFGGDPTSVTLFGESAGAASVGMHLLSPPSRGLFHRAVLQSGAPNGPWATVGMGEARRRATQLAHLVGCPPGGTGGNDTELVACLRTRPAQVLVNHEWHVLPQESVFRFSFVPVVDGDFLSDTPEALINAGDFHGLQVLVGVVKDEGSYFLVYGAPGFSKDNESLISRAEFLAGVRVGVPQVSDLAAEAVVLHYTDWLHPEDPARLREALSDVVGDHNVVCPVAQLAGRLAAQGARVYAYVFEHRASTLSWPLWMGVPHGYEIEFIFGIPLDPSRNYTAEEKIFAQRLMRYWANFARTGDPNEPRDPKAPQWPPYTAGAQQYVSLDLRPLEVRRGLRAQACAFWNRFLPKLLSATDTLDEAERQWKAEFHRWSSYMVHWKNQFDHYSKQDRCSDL

[7] = test system: Plasmodium falciparum; test: Antimalarial activity against chloroquine-sensitive Plasmodium falciparum NF54 measured after 72 hrs by giemsa staining based analysis; format: functional, organism-based; details: NF54, 72 h
[8] = molecular target: T2, Carbonic anhydrase 12 (Homo sapiens, UniProt O43570); test: Inhibition of human CA12
T2 sequence (O43570 whole entry): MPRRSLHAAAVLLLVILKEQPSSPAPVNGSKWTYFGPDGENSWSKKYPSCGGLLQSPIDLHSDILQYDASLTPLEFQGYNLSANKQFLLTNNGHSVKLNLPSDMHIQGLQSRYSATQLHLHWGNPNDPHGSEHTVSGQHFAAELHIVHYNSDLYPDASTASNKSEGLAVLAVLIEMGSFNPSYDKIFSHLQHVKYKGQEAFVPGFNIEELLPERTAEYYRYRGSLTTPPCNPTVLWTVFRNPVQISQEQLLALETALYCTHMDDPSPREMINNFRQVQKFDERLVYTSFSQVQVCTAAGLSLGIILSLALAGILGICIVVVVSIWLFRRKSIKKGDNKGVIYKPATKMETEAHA

[9] = test system: Candida albicans; test: Antifungal activity against Candida albicans assessed as reduction in microbial growth; format: functional
[10] = test system: Cryptococcus neoformans; test: Antifungal activity against Cryptococcus neoformans assessed as reduction in microbial growth; format: functional
[11] = Cytotoxicity against human Panel NCI-58 (58 carcinoma cell lines) cells; format: functional
[12] = test system: Ca9-22; test: Cytotoxicity against human Ca9-22 cells assessed as reduction in cell viability incubated for 48 hrs by MTT assay; format: functional
[13] = test system: HSC-2; test: Cytotoxicity against human HSC-2 cells assessed as reduction in cell viability incubated for 48 hrs by MTT assay; format: functional
[14] = test system: HSC-3; test: Cytotoxicity against human HSC-3 cells assessed as reduction in cell viability incubated for 48 hrs by MTT assay; format: functional
[15] = Cytotoxicity against human HGF cells assessed as reduction in cell viability incubated for 48 hrs by MTT assay; format: functional
[16] = Cytotoxicity against human HPLF cells assessed as reduction in cell viability incubated for 48 hrs by MTT assay; format: functional
[17] = Cytotoxicity against human HPC cells assessed as reduction in cell viability incubated for 48 hrs by MTT assay; format: functional
[18] = molecular target: T1, Carbonic anhydrase 9; test: Inhibition of human CA9 preincubated for 15 mins by phenol red dye based stopped flow CO2 hydration assay
[19] = molecular target: T2, Carbonic anhydrase 12; test: Inhibition of human CA12 preincubated for 15 mins by phenol red dye based stopped flow CO2 hydration assay
[20] = test system: Candida albicans; test: Antifungal activity against Candida albicans by agar dilution method; format: functional
[21] = test system: Bordetella bronchiseptica; test: Antibacterial activity against Bordetella bronchiseptica ATCC 4617 by plate dilution method; format: functional
[22] = Growth inhibition of human Panel NCI-58 (58 carcinoma cell lines) cells by SRB method; format: functional
[23] = Cytotoxicity against human Panel NCI-58 (58 carcinoma cell lines) cells by SRB method; format: functional; details: read-out: LC50 (the source's name)
[24] = test system: Staphylococcus aureus; test: microbe, parasite or virus in culture

Sequence of Carbonic anhydrase 1 (P00915 whole entry): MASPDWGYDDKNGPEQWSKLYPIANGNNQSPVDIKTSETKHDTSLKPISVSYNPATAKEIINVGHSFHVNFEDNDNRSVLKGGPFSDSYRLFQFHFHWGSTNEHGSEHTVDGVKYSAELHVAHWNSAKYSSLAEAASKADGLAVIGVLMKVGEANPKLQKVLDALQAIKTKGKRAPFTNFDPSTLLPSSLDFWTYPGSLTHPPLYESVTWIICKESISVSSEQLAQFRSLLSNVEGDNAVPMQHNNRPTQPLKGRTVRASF

IC50 [1]: 25.4 µg/mL (≈ 59.7 µM)
SMILES: COc1ccc2c(c1)cc(/C=C/C(=O)c1cc(Br)ccc1O)c1nnnn12

Ki [2]: 87.8 nM
Ki [3]: 5.5 nM
Ki [4]: 31.7 nM
SMILES: COc1ccc(C2=NN(C(=O)c3ccc(S(N)(=O)=O)cc3)C(c3ccc(OC)cc3)C2)cc1 (stereo not given)

SMILES: Cc1ccc(C2=NN(c3ccc(S(=O)(=O)NC(=O)NC4CCCCC4)cc3)C(c3ccc(F)cc3)C2)cc1 (stereo not given)
Activity [5]: 16%

SMILES: COc1ccc(C2CC(c3ccccc3)=NN2c2ccc(S(N)(=O)=O)cc2)c(OC)c1 (stereo not given)
Ki [6]: 37.7 nM

IC50 [7]: < 2000 nM
SMILES: COc1cc(C)c(/C=C/C(=O)c2cc(OC)c(OC)c(OC)c2)cc1C(C)C

SMILES: Cc1ccc(C2=NN(c3ccc(S(=O)(=O)NC(=O)Nc4ccc(Cl)cc4)cc3)C(c3ccc(F)cc3)C2)cc1 (stereo not given)
Activity [5]: 16%

Ki [2]: 87.8 nM
Ki [3]: 5.5 nM
Ki [8]: 7.1 nM
Ki [4]: 31.7 nM
SMILES: NS(=O)(=O)c1ccc(C(=O)N2N=C(c3ccc(F)cc3)CC2c2ccccc2)cc1 (stereo not given)

MIC50 [9]: 3.9 µg/mL
MIC50 [10]: < 3.9 µg/mL
MIC ([10]; read-out: MIC100): < 3.9 µg/mL
SMILES: COc1ccc(C2CC(c3cccc(Nc4ccnc5cc(Cl)ccc45)c3)=NN2c2ccc(Cl)cc2)cc1 (stereo not given)
GI50 [11]: < 1000 nM

SMILES: COc1ccc(C2CC(c3ccc(Br)cc3)=NN2c2ccc(S(N)(=O)=O)cc2)c(OC)c1 (stereo not given)
Ki [6]: 37.7 nM

Ki [18]: 53.5 nM
Ki [19]: 6.2 nM
SMILES: NS(=O)(=O)c1ccc(N2N=C(c3ccc(O)cc3)CC2c2ccc(Cl)cc2)cc1 (stereo not given)
CC50 [12]: 39300 nM
CC50 [13]: 39300 nM
CC50 [14]: 39300 nM
CC50 [15]: 39300 nM
CC50 [16]: 39300 nM
CC50 [17]: 39300 nM

Ki [2]: 87.8 nM
Ki [8]: 7.1 nM
Ki [4]: 31.7 nM
SMILES: NS(=O)(=O)c1ccc(C(=O)N2N=C(c3ccccc3)CC2c2ccc(F)cc2)cc1 (stereo not given)

MIC50 [9]: 3.9 µg/mL
MIC50 [10]: 3.9 µg/mL
SMILES: COc1ccc(C2CC(c3cccc(Nc4ccnc5cc(Cl)ccc45)c3)=NN2c2ccccc2)cc1 (stereo not given)
GI50 [11]: < 1000 nM

MIC50 [9]: 3.9 µg/mL
MIC50 [10]: 3.9 µg/mL
SMILES: COc1cc(C2CC(c3cccc(Nc4ccnc5cc(Cl)ccc45)c3)=NN2c2ccc(Cl)cc2)cc(OC)c1OC (stereo not given)
GI50 [11]: < 1000 nM

MIC [20]: 25 µg/mL (≈ 56.8 µM)
IC50 [1]: 23.3 µg/mL (≈ 52.9 µM)
SMILES: COc1ccc2cc(C3CC(c4cc(Br)ccc4O)=NO3)c3nnnn3c2c1 (stereo not given)

Ki [2]: 2670 nM
Ki [3]: 5.5 nM
SMILES: COc1ccc(C2=NN(C(=O)c3ccc(S(N)(=O)=O)cc3)C(c3ccc(OC)c(OC)c3)C2)c(OC)c1 (stereo not given)

MIC [21]: 50 µg/mL (≈ 73.6 µM)
SMILES: O=c1oc2ccc(I)cc2cc1-c1csc(N2N=C(c3ccccc3F)CC2c2cc3ccccc3nc2Cl)n1 (stereo not given)

SMILES: OCCNc1nc(NCCO)nc(Nc2ccc(C3=NN(c4cc(Cl)cc(Cl)c4)C(c4ccc(C(F)(F)F)cc4)C3)cc2)n1 (stereo not given)
GI50 [22]: 569 nM
CC50 [23]: 5150 nM

SMILES: Cc1ccc(C2=NN(c3ccc(S(=O)(=O)NC(=O)Nc4ccccc4)cc3)C(c3ccc(F)cc3)C2)cc1 (stereo not given)
Activity [5]: 16%

SMILES: COc1ccc(C2CC(c3ccc(F)cc3)=NN2c2ccc(S(N)(=O)=O)cc2)c(OC)c1 (stereo not given)
Ki [6]: 37.7 nM

IC50 [7]: < 2000 nM
SMILES: COc1ccc(C2=CC(c3cc(C(C)C)c(OC)cc3C)N(C(=O)OC(C)C)N2C(=O)OC(C)C)cc1OC (stereo not given)

IC50 [7]: < 2000 nM
SMILES: COc1cc(C)c(/C=C/C(=O)c2ccc(Br)cc2)cc1C(C)C

Ki [2]: 317 nM
Ki [18]: 53.5 nM
Ki [19]: 6.2 nM
Ki [4]: 412 nM
SMILES: NS(=O)(=O)c1ccc(N2N=C(c3ccc(O)cc3)CC2c2ccccc2)cc1 (stereo not given)
CC50 [12]: 39300 nM
CC50 [13]: 39300 nM
CC50 [14]: 39300 nM
CC50 [15]: 39300 nM
CC50 [16]: 39300 nM
CC50 [17]: 39300 nM

MIC [24]: 3.9 µg/mL (≈ 6.74 µM)
SMILES: CCOC(=O)C1N=NN(CC(=O)N2N=C(c3nnn(Cc4ccccc4)c3C)CC2c2cccs2)C1C(=O)OCC (stereo not given)

SMILES: O=C(NC1CCCCC1)NS(=O)(=O)c1ccc(N2N=C(c3ccc(Br)cc3)CC2c2ccc(F)cc2)cc1 (stereo not given)
Activity [5]: 16%

Ki [18]: 53.5 nM
Ki [19]: 6.2 nM
SMILES: NS(=O)(=O)c1ccc(N2N=C(c3ccc(O)cc3)CC2c2ccc(F)cc2)cc1 (stereo not given)
CC50 [12]: 39300 nM
CC50 [13]: 39300 nM
CC50 [14]: 39300 nM
CC50 [15]: 39300 nM
CC50 [16]: 39300 nM
CC50 [17]: 39300 nM
